Measurements from PMC9501058, “Clinical Effectiveness and Pharmacokinetics of Dalbavancin in Treatment-Experienced Patients with Skin, Osteoarticular, or Vascular Infections” (Pharmaceutics, 2022).
Like-named read-outs stand apart in the source and are kept apart here.

Tests used:
[1] = human, in vivo
[2] = cited from earlier work
clinical = conditions: human, in vivo, iv
[3] = single 1000 mg infusion; ref Nicolau et al. 14; cited from earlier work
[4] = 35 healthy subjects, single infusion of 1500 mg; ref Rappo et al. 15; cited from earlier work
[5] = ref Dunne et al. 16; cited from earlier work
[6] = test system: plasma proteins (mainly albumin); conditions: human; cited from earlier work
Adverse events under DBV = assay type: in vivo, human
Text: Table 1 Overall patients’ characteristics at the baseline. | column: Overall / n = 76; Intensive PK Study (n = 41) / Group 0 (n = 17)

## CN[C@H]1C(=O)N[C@@H]2Cc3ccc(cc3)Oc3cc4cc(c3O[C@@H]3O[C@H](C(=O)O)[C@@H](O)[C@H](O)[C@H]3NC(=O)CCCCCCCCC(C)C)Oc3ccc(cc3Cl)[C@@H](O)[C@@H]3NC(=O)[C@H](NC(=O)[C@@H]4NC(=O)[C@@H](NC2=O)c2cc(cc(O)c2Cl)Oc2cc1ccc2O)c1ccc(O)c(c1)-c1c(O[C@H]2O[C@H](CO)[C@@H](O)[C@H](O)[C@@H]2O)cc(O)cc1[C@@H](C(=O)NCCCN(C)C)NC3=O [DBV, Dalbavancin]
[1]
  AUC0–3w: 39,985 [37,045–39,985] mg/L·h
  Cmax II dose: 379.5 [321.3–448.8] mg/L
[1]; iv
  AUC0–1w: 26,693 [20,842–28,630] mg/L·h
  AUC0–2w: 34,168 [25,336–37,301] mg/L·h
  AUC0–3w: 39,270 [28,876–43,971] mg/L·h
  Cmax I dose: 347.0 [292.4–479.2] mg/L
  Cumul. AUC0–4w: 41,681 [32,055–48,180] mg/L·h
[2]
  Elimination half-life: 220 to 240 h
clinical; 1500 mg, Cmax I dose
  Cmax: 343 µg/mL
clinical; Cmax II dose
  Cmax: 337 µg/mL
[3]
  Mean penetration into skin blister fluid compared with plasma: 59.6%
[4]
  Penetration into the epithelial-lining fluid: 36%
[5]
  Mean bone/plasma AUC: 13.1%
[6]
  Protein binding (mean percentage in humans): 93%
Adverse events under DBV; number of patients [%], group 0 (n = 17): single 1500 mg dose
  AEs: yes: 1 [6%]
Adverse events under DBV; number of patients, overall n = 76
  AEs: yes: 1
